Data taken from patent US20050049204A1, “Compounds for the treatment of flaviviridae infections” (priority 2003, published 2005).
Counter-ions that a name gives are not always drawn. Like-named read-outs stand apart in the source and are kept apart here.

Experiments:
[1] = tested on: rRNA in HCV-replicon RNA-containing Huh7 cells; assay: rRNA levels in HCV replicon cells (cellular toxicity), Q-RT-PCR after 96 h; details: 100 μM
Method: HCV replicon cells were seeded in the presence of test compound at approximately 10^3 cells per well in a 96-well plate and incubated for 96 hours. rRNA and HCV RNA were quantified by Q-RT-PCR. ●: HCV RNA levels; ◯: rRNA levels; ▾: HCV RNA levels after correction (=subtraction of rRNA) for cellular toxicity. […] The plots shown are the mean results of at least three independent experiments. EC90 values as given in Table 1 are read from the HCV curves corrected for cellular toxicity.
HCV-replicon RNA-containing Huh7 cells (Clone A cells; Apath, LLC, St. Louis, Mo.) were kept in exponential growth in DMEM media (high glucose, no pyruvate) containing 10% fetal bovine serum, 1× non-essential amino acids (100 units/ml), penicillin-streptomycin (100 μg/ml), glutamine (0.292 mg/ml), and G418 (1,000 μg/ml). Antiviral assays were performed in the same medium without G418. […] Cells were seeded in a 6-well plate at 10^5 cells per well. Candidate antiviral compounds were tested as described (Stuyver, et al. “A ribonucleoside analogue that blocks the replication of bovine viral diarrhea and hepatitis C viruses in culture” Antimicrob. Agents Chemother., January 2003, 47 (1), 244-254). Incubation times differed according to the type of experiment. At the end of the incubation step, cells were counted using the trypan-blue exclusion method, and total cellular RNA was isolated (Rneasy 96 kit, Qiagen, CA). Replicon RNA and an internal control (TaqMan Ribosomal RNA Control Reagents, Applied Biosystems, CA) were amplified in a single-step, multiplex RT-PCR protocol, as recommended by the manufacturer and as described (Stuyver, et al. “A ribonucleoside analogue that blocks the replication of bovine viral diarrhea and hepatitis C viruses in culture” Antimicrob. Agents Chemother., January 2003, 47 (1), 244-254).
Replicon cells were incubated in the absence or presence of these anti-metabolites for 96 hours, after which intracellular rRNA and HCV RNA levels were quantified (Table 1).

[2] = tested on: HCV-replicon RNA-containing Huh7 cells (HCV RNA); assay: HCV replicon assay: HCV RNA quantified by Q-RT-PCR after 96 h of compound exposure; format: cell-based, hepatitis C virus (HCV); details: for EC90: read-out: Corrected HCV RNA EC90; for effect on cytoplasmic HCV RNA metabolism: replicon system; for log reduction at 10 µM: read-out: Corrected HCV RNA log10 reduction at 10 μM; for specific inhibition of the replicon: RNR inhibitors tested
Method: (§1) Incubation times differed according to the type of experiment.

[3] = tested on: HCV replicon RNA in Huh7 cells; assay: Reversal studies with natural nucleosides: HCV RNA; format: cell-based, hepatitis C virus (HCV); details: for log10 reduction HCV: no nucleoside
Method: as §1
(§2) Cells were incubated with the test compound and, simultaneously, the natural ribo- or 2′-deoxy nucleosides (adenosine, guanosine (G), cytidine (C), uridine (U), 2′-deoxycytidine (dC), 2′-deoxyuridine, thymidine, 2′-deoxyguanosine (dG), and 2′-deoxyadenosine) (Table 2).

[4] = tested on: HCV replicon-containing Huh7 cell line; assay: Dynamics of replicon cell growth (cell count) over a 7-day period; details: 20 μM, 7-day period
[5] = tested on: HCV replicon RNA in Huh7 cells; assay: HCV RNA levels in replicon cells over a 7-day period; format: cell-based, hepatitis C virus (HCV); details: 20 μM, 7-day period
[6] = tested on: rRNA in HCV replicon Huh7 cells; assay: Reversal studies with natural nucleosides: rRNA; format: cell-based; details: for log10 reduction rRNA: no nucleoside
Method: as §1, §2

[7] = 10 μM, 96 h, corrected by subtraction of rRNA
[8] = 100 μM, 96 h, corrected by subtraction of rRNA
[9] = 96 h, read from HCV curves corrected for rRNA reduction
[10] = Hepatitis C virus, Huh-7, 96 h, read from HCV curves corrected for rRNA reduction
[11] = Hepatitis C virus, Huh-7, 100 μM, 96 h, corrected by subtraction of rRNA, read-out: Corrected HCV RNA log10 reduction at 100 μM
[12] = Hepatitis C virus, Huh-7, 100 μM, 96 h, read-out: Log10 RNA reduction (100 μM) HCV

In the case of `O=c1cnn([C@@H]2O[C@H](CO)[C@@H](O)[C@H]2O)c(=S)[nH]1` [2-thio-6-azauridine], the “Log10 RNA reduction (100 μM) rRNA” value [1] is reported as −0.02 ± 0.12 log10, the “Corrected HCV RNA log10 reduction at 10 μM” value [2, 7] is reported as 0.12 ± 0.10 log10 and the “Log10 RNA reduction (100 μM) HCV” value ([2]; 100 μM, 96 h) is reported as 0.16 ± 0.04 log10. For the same compound, the “Corrected HCV RNA log10 reduction at 100 μM” value [2, 8] was 0.19 ± 0.09 log10, the EC90 [2, 9] was over 100 µM and the “effect on cytoplasmic HCV RNA metabolism” value [2] was “little effect”.

`O=c1[nH]c(=O)n([C@H]2C[C@H](O)[C@@H](CO)O2)cc1F` [2′-deoxy-5FU, 2′-deoxy-5-fluorouridine] was tested, and the “Log10 RNA reduction (100 μM) rRNA” value [1] was 0.73 ± 0.35 log10, the “Corrected HCV RNA log10 reduction at 10 μM” value [2, 7] was 0.23 ± 0.05 log10 and the log reduction at 100 µM ([2]; Hepatitis C virus, Huh-7, 96 h, read-out: Corrected HCV RNA log10 reduction at 100 μM) was 0.04 ± 0.25. For the same compound, the EC90 [2, 10] was over 100 µM.

For `C[C@@]1(O)[C@H](O)[C@@H](CO)O[C@H]1n1cnc2c(N)ncnc21` [2′C—CH3-A, 2′-C-methyl-adenosine], the “Log10 RNA reduction (100 μM) rRNA” value [1] was 2.96 ± 0.08 log10, the “log10 reduction HCV” value ([3]; 100 μM) was 2.32 ± 0.11 log10 and the log reduction at 10 µM ([2]; Hepatitis C virus, Huh-7, 10 μM, 96 h, corrected by subtraction of rRNA) was 2.05. The log reduction at 100 µM [2, 11] was -0.64 ± 0.18, the log reduction at 100 µM [2, 12] was 2.32 ± 0.11 and the EC90 [2, 10] was under 1 µM. The “effect on cell proliferation” value [4] was “minimal”, the “reducing the HCV RNA levels” value [5] was “very potent” and the “log10 reduction rRNA” value ([6]; 100 μM) was 2.96 ± 0.08 log10.

In the case of `O=c1cnn([C@@H]2O[C@H](CO)[C@@H](O)[C@H]2O)c(=O)[nH]1` [6-aza uridine, 6-aza-uridine], the “Log10 RNA reduction (100 μM) rRNA” value [1] is reported as 0.61 ± 0.18 log10, the EC90 [2, 10] is reported as over 100 µM and the “effect on cytoplasmic HCV RNA metabolism” value [2] is reported as “little effect”.

In the case of `Nc1ccn([C@@H]2C=C(CO)[C@@H](O)[C@H]2O)c(=O)n1` [CPE-C, cyclopentenyl-cytosine], the “Log10 RNA reduction (100 μM) rRNA” value [1] is reported as 1.21 ± 0.16 log10, the “log10 reduction HCV including natural nucleoside” value ([3]; 2 μM + C at 50 μM) is reported as 0.30 ± 0.06 log10 and the “log10 reduction HCV including natural nucleoside” value ([3]; 2 μM + U at 50 μM) is reported as 0.58 ± 0.04 log10. The “log10 reduction HCV” value ([3]; 2 μM) was 1.76 ± 0.04 log10, the EC90 [2, 10] was 2.5 µM and the “log10 reduction rRNA including natural nucleoside” value ([6]; 2 μM + C at 50 μM) was −0.04 ± 0.01 log10. For the same compound, the “log10 reduction rRNA including natural nucleoside” value ([6]; 2 μM + U at 50 μM) was 0.32 ± 0.03 log10 and the “log10 reduction rRNA” value ([6]; 2 μM) was 0.99 ± 0.04 log10.

`COc1c(C)c2c(c(O)c1CCOP(=O)(O)CP(=O)(O)OC[C@H]1O[C@@H](n3cnc4c(N)ncnc43)[C@H](O)[C@@H]1O)C(=O)OC2` [Compound C2-MAD] was tested, and the “Log10 RNA reduction (100 μM) rRNA” value [1] was 1.00 ± 0.15 log10, the “Corrected HCV RNA log10 reduction at 10 μM” value [2, 7] was 0.36 ± 0.21 log10 and the “Log10 RNA reduction (100 μM) HCV” value ([2]; 100 μM, 96 h) was 1.09 ± 0.21 log10. For the same compound, the “Corrected HCV RNA log10 reduction at 100 μM” value [2, 8] was 0.08 ± 0.24 log10 and the EC90 [2, 9] was over 100 µM.

`CC(=O)N(O)CCCCCNC(=O)CCC(=O)N(O)CCCCCNC(=O)CCC(=O)N(O)CCCCCN` [Deferoxamine, deferoxamine mesylate] was tested, and the “Log10 RNA reduction (100 μM) rRNA” value [1] was 0.92 ± 0.08 log10, the log reduction at 10 µM ([2]; Hepatitis C virus, Huh-7, 96 h) was 0.17 ± 0.11 and the log reduction at 100 µM [2, 11] was 0.08 ± 0.03. For the same compound, the log reduction at 100 µM [2, 12] was 1 ± 0.06, the EC90 [2, 10] was over 100 µM and the “specific inhibition of the replicon” value [2] was “none”.

For `Nc1n[nH]c(N)n1` [Guanazole, guanazole], the “Log10 RNA reduction (100 μM) rRNA” value [1] was 0.07 ± 0.03 log10, the “Log10 RNA reduction (100 μM) HCV” value ([2]; 100 μM, 96 h) was 0.25 ± 0.11 log10 and the “Corrected HCV RNA log10 reduction at 100 μM” value [2, 8] was 0.32 ± 0.08 log10. For the same compound, the EC90 ([2]; Hepatitis C virus, Huh-7, 96 h) was over 100 µM, the log reduction at 10 µM ([2]; Hepatitis C virus, Huh-7, 96 h) was 0.05 ± 0.08 and the “specific inhibition of the replicon” value [2] was “none”.
